Data reported in PubChem BioAssay AID1902 (Broad Institute, 2009).
Active and inactive are the calls of the source.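 How the source made its calls: active means EC50 no more than a set limit of log units above the highest dose; inactive means the rest.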

Biological target: S. pyogenes SKKanGAS, kanamycin survival, BacTiterGlo, 6 h
Assay: SKKanGAS survival reduction under kanamycin, dose response, streptokinase promoter inhibitor project, SKKanGAS strain, luminescence, dose confirmation (AID 1902);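 further: lower survival reflects blocked streptokinase promoter driving kanamycin resistance gene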

First: Cc1nc(N/N=C\c2ccc3c(c2)OCO3)sc1C
Second: CC(C)(C)c1ccc(Cn2ccc(-c3ccc4c(c3)OCO4)n2)cc1
The EC50 of the first is 1.5-fold lower: 4.63 µM for the first, 7.09 µM for the second.

Going from `CCOc1ccc2c(c1)c1nnc(SCC(=O)N3CCC(C)CC3)nc1n2C` to `Cc1nn2c(N3CCN(C(=O)c4ccco4)CC3)cc(C(C)(C)C)nc2c1-c1ccccc1`, the EC50 falls from 15.6 µM to 6.19 µM (2.5-fold).

Compared with `COc1cnc(-c2ccccn2)nc1Oc1ccccc1`, `COc1ccc(Oc2nc(C(F)(F)F)nc3ccccc23)cc1` is 3.5-fold higher in EC50: 2.03 µM for the first, 7.14 µM for the second. The first is the more potent here.

First: COc1ccc(C2CC(c3ccccc3)=NN2C(=O)c2cccs2)cc1 (stereo unspecified)
Second: COc1ccc(C(=O)NC(=S)N(Cc2ccccc2)Cc2ccccc2)cc1
The EC50 of the first is 12-fold higher: 7.84 µM for the first, 0.674 µM for the second.

`Cc1cccc(OCC(=O)Nc2ccccc2N2CCCCC2)c1C` and `CC(Oc1ccc(F)cc1)C(=O)Nc1ccccc1N1CCCCC1` (stereo unspecified) are within 1.5-fold of each other in EC50: 4.8 µM for the first, 5.01 µM for the second.

`COc1cc(/C=C2/SC(=S)N(Cc3ccccc3)C2=O)ccc1O` and `O=C1/C(=C/c2cccnc2)SC(=NCc2ccccc2)N1Cc1ccccc1` are within 1.5-fold of each other in EC50: 5.8 µM for the first, 8.09 µM for the second.

`Nc1nc2ccccc2n1/N=C/c1ccc(-c2ccccc2)o1` and `O=[N+]([O-])/C=C/c1c(OCc2ccccc2)ccc2ccccc12` are within 1.5-fold of each other in EC50: 1.96 µM for the first, 1.63 µM for the second.

Going from `O=c1[nH]c(CN2CC=C(c3ccccc3)CC2)nc2scc(-c3cccs3)c12` to `O=C(Nc1nnc(C2CC2)s1)c1cc(-c2ccccc2)nn1-c1ccccc1`, the EC50 rises from 3.87 µM to 6.47 µM (1.7-fold). The first is the more potent here.

First: O=Nc1c(O)c2ccccc2c2ccccc12
Second: O=C(N/N=C/c1c(O)n(-c2ccccc2Cl)c(=O)c2ccccc12)C1COc2ccccc2O1 (stereo unspecified)
The EC50 of the first is 1.6-fold lower: 2.34 µM for the first, 3.74 µM for the second.

Going from `O=C(O)c1ccc(S(=O)(=O)/N=C2\C=C(Nc3ccccc3F)C(=O)c3ccccc32)cc1` to `CCCOc1ccc(C(=O)NNC(=S)NC(=O)c2cc(-c3ccc(Cl)cc3)nc3ccccc23)cc1`, the EC50 falls from 3.1 µM to less than 0.06 µM.

Compared with `COc1cc(NC(=O)CSc2ncnc3sc4c(c23)CCCC4)c(C(=O)O)cc1OC`, `Cc1noc(C)c1CSc1nc2sc(C)c(C)c2c(=O)n1C1CCCC1` is 4.1-fold lower in EC50: 12 µM for the first, 2.94 µM for the second.

First: CCCCCCOC(=O)/C=C/c1c(C)[nH]c(=O)[nH]c1=O
Second: Cn1c(N)c(C(=O)COC(=O)/C=C/c2ccc(OC(F)F)cc2)c(=O)n(C)c1=O
The EC50 of the first is 3.1-fold lower: 0.475 µM for the first, 1.47 µM for the second. The first is the more potent here.

Going from `CC(C)(C)c1ccc(OCC(=O)NNC(=S)NC(=O)c2ccco2)c(Br)c1` to `CC(C)(C)c1cc(C(=O)Nc2ccc(F)cc2)n(Cc2ccc(F)cc2)n1`, the EC50 rises from less than 0.06 µM to 3.77 µM. The first is the more potent here.

Going from `O=C(Nc1nc(-c2cc(Cl)sc2Cl)cs1)c1cccs1` to `O=C(COc1ccc(F)cc1)Nc1nc(-c2ccccn2)cs1`, the EC50 falls from 8.68 µM to 5.55 µM (1.6-fold). The second is the more potent here.

Compared with `CCCc1nc2ccccc2c(=O)n1/N=C/c1c(C)[nH]n(-c2ccc(C)cc2)c1=O`, `Cc1ccc(C)c(S(=O)(=O)N2CCN(Cc3ccc(O)c4ncccc34)CC2)c1` is 2.3-fold higher in EC50: 1.23 µM for the first, 2.8 µM for the second.

Compared with `O=C(Cc1csc(NC(=O)Nc2cccc(Cl)c2)n1)NCc1ccccn1`, `COc1ccc2nc(-n3c(O)c(C4=c5ccccc5=NC4=O)[nH]c3=S)sc2c1` is 14-fold lower in EC50: 6.87 µM for the first, 0.508 µM for the second. The second is the more potent here.

Compared with `CN1CCN(C2Cc3ccc(Cl)cc3Sc3ccc(F)cc32)CC1` (stereo unspecified), `Cc1nc(N)sc1N=Nc1ccc(F)cc1` is 3-fold lower in EC50: 6.47 µM for the first, 2.13 µM for the second.

`CC1Oc2cc3oc4c(O)c5c(cc4c(=O)c3c(O)c2C1(C)C)C=CC(C)(C)O5` (stereo unspecified) and `Cc1ccc(C(=O)NC(=S)N(C)C2CCCCC2)cc1Br` are within 1.5-fold of each other in EC50: 2.48 µM for the first, 2.96 µM for the second.

First: FC(F)(F)c1cc(-c2ccccc2)nc(N2CCCCCC2)n1
Second: C/C(=C\C(=O)OCCCCCCCCC(=O)O)C[C@@H]1OC[C@H](C[C@@H]2O[C@H]2[C@@H](C)[C@H](C)O)[C@@H](O)[C@H]1O
The EC50 of the first is higher: 3.93 µM for the first, less than 0.06 µM for the second. The second is the more potent here.

`COc1ccc(S(=O)(=O)N2CCOC2CNC(=O)C(=O)NCc2ccccc2Cl)cc1` (stereo unspecified) was tested, and the EC50 was > 15 µM (inactive).
With `CN(C(=S)NC(=O)c1ccccc1)C1CCCCC1` the EC50 was > 15 µM (inactive).
For `COc1ccc(C(=O)N2CCCC(Nc3ccc(C)c(C)c3)C2)cc1F` (stereo unspecified), the EC50 was > 15 µM (inactive).
